{
  "source": "patent US20220370397A1",
  "about": "“METHODS AND COMPOSITIONS FOR TREATMENT OF CANCER” (Enzychem Lifesciences Corporation, priority 2019, published 2022)",
  "key": {"LLC-1 lung carcinoma": {"tested_on": "LLC-1 lung carcinoma", "test": "LLC-1 syngeneic model, PLAG with or without aPD-1", "format": "in vivo, C57BL/6 mice", "source_text": "To investigate the enhanced anti tumor effect of the anti-PD-1 antibody (aPD-1 with the addition of 1-palmitoyl-2-linoleoyk-3-acetyl-rac-glycerol (PLAG), the syngeneic model was used (n=6/group), LLC-1 lung carcinoma was implanted into C57BL/6 mice subcutaneously. PLAG was daily administrated for 4 weeks with or without aPD-1 (RMP 1-14. aPD-1 was delivered via IP injection once a week. The degree of infiltrated lymphocyte population and neutrophils in the tumor and blood on the sacrificed day were analyzed (FIG. 12, Table 2)."}, "tumor in Xenograft mice": {"tested_on": "tumor in Xenograft mice", "test": "PLAG alone in Xenograft mice (tumor mass, neutrophil infiltration, chemokines, cell cycle factors by IHC)", "format": "in vivo, mouse", "source_text": "Compared to positive control: *P<0.05, ***P<0.001 (each experiment n=5).\nCompared to positive control: *P<0.05, **P<0.01 (each experiment n=5).\nN.S., not significant. Compared to positive control; #P<0.05, ##P<0.01, ###P<0.001 (each experiment n=5). N.S.′, not significant.\nCompared to positive control: *P<0.05, **P<0.01 (each experiment n=5). N.S., not significant."}, "[1]": {"tested_on": "neutrophil-activated MDA-MB-231 breast cancer cells", "test": "Cell growth and cell cycle activity in neutrophil-activated cancer cells", "format": "cell-based", "source_text": "Compared to negative control each week: *P<0.05, **P<0.01, ***P<0.001 (each experiment n=5). N.S., not significant. Compared to neutrophil stimulated only group each week: #P<0.05, ##P<0.01, ###P<0.001 (each experiment n=5). N.S.′, not significant."}, "[2]": {"tested_on": "MB49 murine bladder cancer cells", "test": "MB49 bladder cancer syngeneic model, PLAG with or without PD-L1 antibody", "format": "in vivo, C57BL/6 mice", "source_text": "The syngeneic model was used (n=6) to investigate the enhanced anti-tumor effect of PD-L1 antibody with the addition of PLAG. MB49 murine bladder cancer cells were implanted into the C57BL/6 mice subcutaneously and bred for 5 weeks. After a week from tumor implantation, PLAG at different dosages (50/100 mpk) were daily administered orally for another 4 weeks with or without 5 mpk PD-L1 antibody (10F.9G2). PD-L1 antibody was delivered via IP injection once a week. (FIG. 7, Table 1)"}, "PAR2": {"tested_on": "PAR2", "test": "PAR2 degradation (western blot, immunoprecipitation, ubiquitination assay)", "format": "cell-based", "details": "PLAG and neutrophil co-treated cancer cells / cancer tissues"}, "[3]": {"tested_on": "MDA-MB-231 breast cancer Xenograft", "test": "MDA-MB-231 breast cancer Xenograft model, AC-regimen alone and PLAG co-treatment", "format": "in vivo, mouse", "protocol": "MDA-MB-231 breast cancer Xenograft model was used. Tumor growth was evaluated in the AC-regimen alone and PLAG co-treated animals. AC-regimen was delivered via IP injection twice a week with dose of 2/20 and 5/50 mph (Doxorubicin/Cyclophosphamide), and PLAG was daily administered with 100 and 250 mpk. Tumor growth was calculated with 3 day intervals. Neutrophil chemotaxis related chemokines, CXCL1/2/8 and circulating neutrophils were also evaluated with 2 week internal. Expression of apoptosis molecular markers, Bax/Bak and tumor-infiltrating neutrophil (TIN) in the tumor lesion was analyzed by immunohistochemistry (IHC)."}},
  "data": [
    {"smiles": "CCCCC/C=C\\C/C=C\\CCCCCCCC(=O)OC(COC(C)=O)COC(=O)CCCCCCCCCCCCCCC", "note": "(stereo not drawn) [PLAG, 1-palmitoyl-2-linoleoyl-3-acetylglycerol]", "values": [
      {"measurement": "tumor burden compared to positive control", "setting": "LLC-1 lung carcinoma; PLAG alone 50 and 100 mpk", "result": "significantly reduced"},
      {"measurement": "activity and infiltration of cytotoxic T-Lymphocyte (CTLs) in the tumor compared to aPD-1 alone", "setting": "LLC-1 lung carcinoma; PLAG co-treated with aPD-1", "result": "effectively increased"},
      {"measurement": "neutrophil to lymphocyte ratio levels compared to aPD-1 alone", "setting": "LLC-1 lung carcinoma; PLAG co-treated with aPD-1", "result": "decreased remarkably"},
      {"measurement": "population of Th 17 compared to the positive control", "setting": "LLC-1 lung carcinoma; PLAG co-treated with aPD-1", "result": "significant reduction"},
      {"measurement": "tumor reduction compared to aPD-1 alone", "setting": "LLC-1 lung carcinoma; PLAG co-treated with aPD-1", "result": 18},
      {"measurement": "DAMP (adenosine) originated from tumor, plasma", "setting": "LLC-1 lung carcinoma; PLAG treatment", "result": "rapid removal"},
      {"measurement": "degree of neutrophil infiltration in the tumor", "setting": "LLC-1 lung carcinoma; upon PLAG treatment", "result": "effectively reduced"},
      {"measurement": "expression of neutrophil chemotactic chemokine in cancer tissues", "setting": "tumor in Xenograft mice", "result": "effectively regulate"},
      {"measurement": "infiltration of neutrophils in cancer tissues", "setting": "tumor in Xenograft mice", "result": "control excessive infiltration of neutrophils"},
      {"measurement": "cell cycle of cancer tissues / excessive growth", "setting": "tumor in Xenograft mice; without additional chemotherapeutic agents", "result": "regulate excessive growth by inhibiting the cell cycle"},
      {"measurement": "cell cycle activity", "setting": "[1]; neutrophil activated cancer cells", "result": "inhibitory effect"},
      {"measurement": "cell growth", "setting": "[1]; neutrophil-activated MDA-MB-231 cells, dose-dependent", "result": "inhibition of cell growth"},
      {"measurement": "number of TINs", "setting": "[2]; PLAG alone", "result": "effectively reduced"},
      {"measurement": "tumor burden compared to positive control", "setting": "[2]; PLAG alone 50 and 100 mpk, oral daily, p<0.05", "result": "decreased to a significant value"},
      {"measurement": "growth of the tumor compared to PD-L1 antibody alone", "setting": "[2]; PLAG and PD-L1 antibody simultaneously", "result": "significantly reduced"},
      {"measurement": "neutrophil-to-lymphocyte ratio (NLR) level compared to PD-L1 antibody alone", "setting": "[2]; PLAG and PD-L1 antibody, blood, every two weeks", "result": "significantly decreased"},
      {"measurement": "chemokine secretion", "setting": "[2]; PLAG treated groups", "result": "reduced"},
      {"measurement": "PAR2 degradation", "setting": "PAR2", "result": "inducing PAR2 degradation"},
      {"measurement": "tumor tissue on the sacrifice day", "setting": "[3]; 250 mpk PLAG co-treated with 5/50 AC-regimen", "result": "no tumor tissues were found"},
      {"measurement": "tumor burden compared with AC-regimen alone group", "setting": "[3]; PLAG 100 and 250 mpk daily co-treated with 5/50 AC-regimen, p<0.05", "result": "significantly decreased in a concentration-dependent manner"},
      {"measurement": "tumor-infiltrating neutrophil (TIN)", "setting": "[3]; PLAG added to AC-regimen, IHC", "result": "Significantly reduced"},
      {"measurement": "chemokine expression", "setting": "[3]; PLAG added to AC-regimen, chemokine analysis", "result": "Significantly reduced"},
      {"measurement": "chemokine expression", "setting": "[3]; PLAG alone", "result": "reduced"},
      {"measurement": "tumor growth", "setting": "[3]; PLAG alone", "result": "interruption of tumor growth"},
      {"measurement": "tumor-infiltrating neutrophil (TIN)", "setting": "[3]; PLAG alone", "result": "reduced"},
      {"measurement": "kind of combined effect on regression of tumor burden", "setting": "[3]; PLAG co-treated with AC-regimen", "result": "synergistic effect"},
      {"measurement": "tumor burden compared with AC-regimen alone", "setting": "[3]; PLAG co-treated with AC-regimen, until sacrifice", "result": "smaller tumor burden than that in AC-regimen alone"}
    ]}
  ]
}
